Measured values as given in PMC10666548, “Identification of the bacterial metabolite aerugine as potential trigger of human dopaminergic neurodegeneration” (Environment international, 2023).

How the values were obtained:
[1] = tested on: LUHMES neurons; test: Time course of cell death in d6 LUHMES (phase contrast, TMRE, H-33342, propidium iodide); type: cell-based, human; settings: 10 μM
Method: Cells were stained either with 50 nM tetramethylrhodamine ethyl ester (TMRE) or 1.5 μM propidium iodide (PI) for at least 30 min at 37 °C and 5% CO2 ([Brüll et al., 2020]; [Krug et al., 2014]). Fluorescent imaging was performed (AxioObserver, Zeiss, Germany) with excitation/emission wavelengths of 575 ± 25/640 ± 35 nm.
To obtain additional information on the death process triggered by aerugine, we also examined earlier time points after exposure to a fixed concentration of 10 μM. Semi-quantitative information was obtained from phase contrast images, by staining of energized mitochondria with the potential-sensitive dye tetramethylrhodamine ethyl ester (TMRE) and by visualization of the chromatin structure with the […] dye H-33342. […] While the neurite structure was well-preserved, some of the cell bodies flattened in a way that the nucleus became visible in phase contrast. The normally round/dome-like cells took a flattened “fried egg” structure. In parallel, the DNA condensed and fragmented into small, round and highly-fluorescent spheres, a typical hallmark of apoptosis. Cells with apoptotic nuclei had lost their TMRE stain. At 8 h, more cell bodies looked flattened (“unhealthy”) and the neurites were thinning. […] This sequence of events is typical of neuronal apoptosis, e.g. under mild excitotoxic conditions, or after exposure to proteasome inhibitors or cytoskeletal poisons ([Gutbier et al., 2018b]; [Leist et al., 1997]; [Volbracht et al., 2001]; [Volbracht et al., 1999]). The overall kinetics of cell death was rather fast, compared to many other toxicants. […] To obtain a more quantitative confirmation of the rapid process, cells were stained with calcein-acetoxymethyl ester and propidium iodide (PI) and observed over time. The staining of nuclei (indication of plasma membrane permeability) by PI was quantified by an imaging algorithm. By 6 h, dead cells increased by 17 ± 6%, by 8 h by 25 ± 5%, and by 10 h, > 95% of the cell nuclei were positive. This confirms the fast cell death process triggered by aerugine (10 μM) in neurons.

[2] = tested on: d3 LUHMES cells; test: Aerugine toxicity in glucose vs galactose medium; type: cell-based, human
Method: Ückert et al. (2023): Identification of the bacterial metabolite aerugine as potential trigger of human dopaminergic […]
A The effect of aerugine on respiratory function was analysed in d3 LUHMES cells. The oxygen consumption rate of the individual technical replicates is shown. The oxygen consumption rate is normalised to the last measurement before injection. The injections of aerugine, control and the subsequent assay tool compounds are indicated (FCCP: 1.5 µM; oligomycin: 1 µM; rotenone + antimycin A: 0.5 µM +0.5 µM). B Several parameters were derived from the oxygen consumption rate. The data is presented as means ± SD of four replicates (obtained from one cell batch). Statistical analysis was performed using a one-way ANOVA with Dunnett‘s multiple comparisons test. * = p < 0.0001. C Delp et al. (2019) determined the dependence of LUHMES cells on glycolysis and their mitochondria for ATP production in two different media conditions. […]
mitochondrial metabolism in producing ATP in the two different media. D Aerugine toxicity was assessed in d3 LUHMES cells cultured in glucose and in galactose medium. Cell viability was assessed by calcein-AM & H-33342 staining and automated fluorescence microscopy. Double positive cells were counted as viable, H-33342 mono-positive cells were counted as dead.

OCC1CSC(c2ccccc2O)=N1 (stereo not shown) [aerugine, 2-[4-(hydroxymethyl)-4,5-dihydro-1,3-thiazol-2-yl]phenol]
morphology (phase contrast, TMRE, H-33342) ([1]; 6 h exposure): clear morphological changes became obvious
mitochondrial membrane potential in intact neurites (TMRE) ([1]; 8 h): the mitochondrial membrane potential was lost
morphology (neurites, nuclei) ([1]; 10 h): the majority of neurites was lost
increase of dead cells (PI-stained nuclei) ([1]; by 6 h): 17 ± 6%
increase of dead cells (PI-stained nuclei) ([1]; by 8 h): 25 ± 5%
PI-positive cell nuclei ([1]; by 10 h): > 95%
toxicity in galactose vs glucose medium [2]: no increased aerugine toxicity was observed
